# Results published in ChEMBL document CHEMBL1201862, “PubChem BioAssay data set” (2004).
#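 Cells were grown in 96-well plates and exposed to each compound for 48 hours at five concentrations; endpoints were interpolated linearly between bracketing concentrations, or set to the highest concentration if not reached. GI50: concentration for 50% inhibition of growth.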 Calls of active or inactive are those of the source. No stated cut-off is given here; in the data, active = GI50 up to about 1.1 µM and inactive = higher.
# Columns and labels:
# Assay in all cases: growth of human tumour cells (NCI), 48 h
# [1] = system: OVCAR-3
# [2] = system: EKVX
# [3] = system: NCI-H226
# [4] = system: PC-3
# [5] = system: SF-268
# [6] = system: SW-620
# [7] = system: UACC-257
# [8] = system: Hs-578T
# [9] = system: DU-145
# [10] = system: ACHN
# [11] = system: T47D
# [12] = system: NCI-H522
# [13] = system: UACC-62
# [14] = system: SR
# [15] = system: 786-0
# [16] = system: SK-MEL-2
# [17] = system: OVCAR-4
# [18] = system: BT-549
# [19] = system: K562
SMILES,GI50 [1],GI50 [2],GI50 [3],GI50 [4],GI50 [5],GI50 [6],GI50 [7],GI50 [8],GI50 [9],GI50 [10],GI50 [11],GI50 [12],GI50 [13],GI50 [14],GI50 [15],GI50 [16],GI50 [17],GI50 [18],GI50 [19]
Nc1ncnc2c1nc(Cl)n2C1OC(CO)C(O)C1O (stereo not given),2.75 µM (inactive),5.7 µM (inactive),1.63 µM (inactive),1.44 µM (inactive),12.2 µM (inactive),1.55 µM (inactive),4.48 µM (inactive),15.3 µM (inactive),0.714 µM (active),0.489 µM (active),0.574 µM (active),0.546 µM (active),0.966 µM (active),1.13 µM (inactive),1.79 µM (inactive),2.02 µM (inactive),5.07 µM (inactive),3.15 µM (inactive),0.347 µM (active)
O=C(NN=C1CCCCC1)Nc1ccccc1Cl,16.4 µM (inactive),52.8 µM (inactive),39.9 µM (inactive),> 100 µM (inactive),41.1 µM (inactive),43.8 µM (inactive),78.7 µM (inactive),32 µM (inactive),86.1 µM (inactive),> 100 µM (inactive),29.5 µM (inactive),23.1 µM (inactive),36.8 µM (inactive),22.5 µM (inactive),> 100 µM (inactive),28.6 µM (inactive),> 100 µM (inactive),64.4 µM (inactive),37.7 µM (inactive)
CC1=NN=C(C)C1/N=N/c1ccc2[nH]c(C)nc2c1,13.4 µM (inactive),18.7 µM (inactive),3.84 µM (inactive),27.7 µM (inactive),10.9 µM (inactive),25.3 µM (inactive),47.6 µM (inactive),5.36 µM (inactive),9.23 µM (inactive),7.46 µM (inactive),5.11 µM (inactive),6.95 µM (inactive),14.9 µM (inactive),5.41 µM (inactive),34.4 µM (inactive),8.07 µM (inactive),58.1 µM (inactive),20.8 µM (inactive),> 69.2 µM (inactive)
COc1ccc(/C=C2\C[C@H]3[C@@H]4CC=C5C[C@@H](O)CC[C@]5(C)[C@H]4CC[C@]3(C)\C2=N\O)cc1,6.89 µM (inactive),1.41 µM (inactive),19.3 µM (inactive),8.45 µM (inactive),4.95 µM (inactive),26.7 µM (inactive),7.21 µM (inactive),10 µM (inactive),22.4 µM (inactive),19.5 µM (inactive),1.26 µM (inactive),4.97 µM (inactive),17.7 µM (inactive),1.89 µM (inactive),14.3 µM (inactive),15.6 µM (inactive),51.5 µM (inactive),7.69 µM (inactive),4.85 µM (inactive)
NC1=NN(c2ccccc2)C2(O)c3ccncc3C3=NN(c4ccccc4)C(=O)C132 (stereo not given),> 100 µM (inactive),> 100 µM (inactive),> 100 µM (inactive),> 100 µM (inactive),> 100 µM (inactive),> 100 µM (inactive),> 100 µM (inactive),> 100 µM (inactive),> 100 µM (inactive),> 100 µM (inactive),> 100 µM (inactive),> 100 µM (inactive),> 100 µM (inactive),> 100 µM (inactive),> 100 µM (inactive),> 100 µM (inactive),51.2 µM (inactive),> 100 µM (inactive),> 100 µM (inactive)
CC1=NC(=Cc2cc(Br)cc(Br)c2)C(=O)N1n1c(-c2ccccc2)nc2ccccc2c1=O,> 100 µM (inactive),> 100 µM (inactive),> 100 µM (inactive),> 100 µM (inactive),> 100 µM (inactive),> 100 µM (inactive),> 100 µM (inactive),> 100 µM (inactive),> 100 µM (inactive),> 100 µM (inactive),> 100 µM (inactive),> 100 µM (inactive),> 100 µM (inactive),55.2 µM (inactive),> 100 µM (inactive),> 100 µM (inactive),> 100 µM (inactive),> 100 µM (inactive),> 100 µM (inactive)
OC12CC3c4ccccc4NC3C3Oc4cccc5c4C31CCN(CC1CC1)C2C5 (stereo not given),16.9 µM (inactive),16.7 µM (inactive),26.1 µM (inactive),16.7 µM (inactive),18.2 µM (inactive),11.8 µM (inactive),17.8 µM (inactive),23.9 µM (inactive),17.1 µM (inactive),18.9 µM (inactive),18.9 µM (inactive),21.7 µM (inactive),18.4 µM (inactive),17.4 µM (inactive),16.7 µM (inactive),19.5 µM (inactive),20.7 µM (inactive),16.3 µM (inactive),15.5 µM (inactive)
O=C(O)c1cc2ccccc2c(O)c1O,13.5 µM (inactive),23.4 µM (inactive),13.7 µM (inactive),12.8 µM (inactive),17.2 µM (inactive),19.7 µM (inactive),9.68 µM (inactive),8.13 µM (inactive),18.3 µM (inactive),16.9 µM (inactive),25.8 µM (inactive),15.1 µM (inactive),5.98 µM (inactive),> 45.4 µM (inactive),14.3 µM (inactive),1.03 µM (active),19 µM (inactive),16.1 µM (inactive),8.09 µM (inactive)
COc1ccc(/C=C2\CCC(C)C3=C2NC(=S)NC3c2ccc(OC)c(OC)c2)cc1OC (stereo not given),24.4 µM (inactive),20.1 µM (inactive),> 78 µM (inactive),10.7 µM (inactive),25.5 µM (inactive),26.1 µM (inactive),> 31.6 µM (inactive),30.8 µM (inactive),27.2 µM (inactive),24.3 µM (inactive),2.33 µM (inactive),> 100 µM (inactive),20.2 µM (inactive),2.65 µM (inactive),22.3 µM (inactive),26.5 µM (inactive),35.4 µM (inactive),13.3 µM (inactive),3.99 µM (inactive)
Cc1ccc(/N=N/C(=N/NC(=O)c2cc(Cl)ccc2O)c2ccc(N(CCC#N)CCC#N)cc2C)cc1,11.1 µM (inactive),21.5 µM (inactive),17.1 µM (inactive),24.3 µM (inactive),25.1 µM (inactive),,13.2 µM (inactive),9.95 µM (inactive),26.9 µM (inactive),24.4 µM (inactive),7.29 µM (inactive),8.95 µM (inactive),22.7 µM (inactive),51.2 µM (inactive),28.1 µM (inactive),15.7 µM (inactive),23.8 µM (inactive),27.5 µM (inactive),17.1 µM (inactive)
O=C1C(N2CCCC2)=CC(=O)c2c(O)c(N3CCCC3)c(Cl)c(O)c21,> 10 µM (inactive),> 10 µM (inactive),> 10 µM (inactive),> 10 µM (inactive),> 10 µM (inactive),> 10 µM (inactive),> 10 µM (inactive),> 10 µM (inactive),> 10 µM (inactive),> 10 µM (inactive),> 10 µM (inactive),> 10 µM (inactive),> 10 µM (inactive),> 10 µM (inactive),> 10 µM (inactive),> 10 µM (inactive),> 10 µM (inactive),> 10 µM (inactive),> 10 µM (inactive)
Cc1cccc(C2ON=C(c3ccccc3)N2C23CC4CC(CC(C4)C2)C3)c1 (stereo not given),> 10 µM (inactive),> 10 µM (inactive),> 10 µM (inactive),> 10 µM (inactive),> 10 µM (inactive),> 10 µM (inactive),> 10 µM (inactive),> 10 µM (inactive),> 10 µM (inactive),> 10 µM (inactive),> 10 µM (inactive),> 10 µM (inactive),> 10 µM (inactive),> 10 µM (inactive),> 10 µM (inactive),> 10 µM (inactive),> 10 µM (inactive),> 10 µM (inactive),> 10 µM (inactive)
COc1ccc(CNC(=O)[C@H](Cc2ccc(O)cn2)NC(C)=O)cc1OC,> 100 µM (inactive),> 100 µM (inactive),> 100 µM (inactive),> 100 µM (inactive),> 90.6 µM (inactive),> 100 µM (inactive),> 100 µM (inactive),> 74.5 µM (inactive),> 100 µM (inactive),> 100 µM (inactive),> 100 µM (inactive),> 93.5 µM (inactive),> 100 µM (inactive),> 100 µM (inactive),> 100 µM (inactive),> 100 µM (inactive),> 100 µM (inactive),> 100 µM (inactive),> 100 µM (inactive)
CN(C)c1c(C2CC(O)C(CO)O2)c(=O)c1=O (stereo not given),> 100 µM (inactive),> 100 µM (inactive),77.1 µM (inactive),> 100 µM (inactive),> 100 µM (inactive),> 100 µM (inactive),> 100 µM (inactive),> 100 µM (inactive),> 100 µM (inactive),> 100 µM (inactive),> 100 µM (inactive),> 100 µM (inactive),> 100 µM (inactive),> 100 µM (inactive),> 100 µM (inactive),> 100 µM (inactive),> 100 µM (inactive),> 100 µM (inactive),> 100 µM (inactive)
